These results are taken from ChEMBL document CHEMBL1143748, “'Bridged' stilbene derivatives as selective cyclooxygenase-1 inhibitors” (Bioorg Med Chem, 2007).

Where only a bound is given, the exact number is not on record here.

Experiment [1] can be described thus: Relaxing effect on guinea pig arteria pulmonalis ring assessed as reduction of force of contraction at 100 uM. The experiment is classed as functional, Cavia porcellus. On the set-up: scale not given: the % may be the effect or the level left.
Experiment [2] has as its system Aorta. As to the kind of experiment: Relaxing effect on guinea pig aorta ring assessed as reduction of force of contraction at 100 uM. On the set-up: scale not given: the % may be the effect or the level left. The experiment is classed as functional, Cavia porcellus.
The subject of experiment [3] is Ileum. The experiment can be described thus: Relaxing effect on guinea pig terminal ileum ring assessed as reduction of force of contraction at 100 uM. The experiment is classed as functional, Cavia porcellus. Set-up: scale not given: the % may be the effect or the level left.
Experiment [4] has as its target T1, Prostaglandin G/H synthase 1 (Ovis aries, UniProt P05979).
T1 sequence (P05979 whole entry): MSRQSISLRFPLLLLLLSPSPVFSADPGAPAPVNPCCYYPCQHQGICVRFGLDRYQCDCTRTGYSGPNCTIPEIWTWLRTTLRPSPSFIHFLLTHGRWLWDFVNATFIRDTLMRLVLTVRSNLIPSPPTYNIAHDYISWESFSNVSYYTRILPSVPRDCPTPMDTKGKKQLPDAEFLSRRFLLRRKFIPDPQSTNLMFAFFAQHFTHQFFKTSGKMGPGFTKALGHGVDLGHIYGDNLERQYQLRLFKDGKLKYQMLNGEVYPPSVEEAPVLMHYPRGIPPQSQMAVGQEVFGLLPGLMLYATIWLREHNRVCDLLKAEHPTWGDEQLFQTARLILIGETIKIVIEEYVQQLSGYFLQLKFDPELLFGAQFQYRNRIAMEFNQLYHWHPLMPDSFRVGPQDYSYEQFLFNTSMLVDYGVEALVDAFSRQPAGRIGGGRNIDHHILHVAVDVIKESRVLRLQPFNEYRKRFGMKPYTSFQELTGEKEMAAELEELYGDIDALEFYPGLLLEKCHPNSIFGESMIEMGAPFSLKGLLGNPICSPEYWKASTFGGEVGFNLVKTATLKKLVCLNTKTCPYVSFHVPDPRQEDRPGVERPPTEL
The experiment can be described thus: Inhibition of ovine COX1 by measuring PGE2.

The target of experiment [5] is T2, Prostaglandin G/H synthase 2 (Homo sapiens, UniProt P35354).
T2 sequence (P35354 whole entry): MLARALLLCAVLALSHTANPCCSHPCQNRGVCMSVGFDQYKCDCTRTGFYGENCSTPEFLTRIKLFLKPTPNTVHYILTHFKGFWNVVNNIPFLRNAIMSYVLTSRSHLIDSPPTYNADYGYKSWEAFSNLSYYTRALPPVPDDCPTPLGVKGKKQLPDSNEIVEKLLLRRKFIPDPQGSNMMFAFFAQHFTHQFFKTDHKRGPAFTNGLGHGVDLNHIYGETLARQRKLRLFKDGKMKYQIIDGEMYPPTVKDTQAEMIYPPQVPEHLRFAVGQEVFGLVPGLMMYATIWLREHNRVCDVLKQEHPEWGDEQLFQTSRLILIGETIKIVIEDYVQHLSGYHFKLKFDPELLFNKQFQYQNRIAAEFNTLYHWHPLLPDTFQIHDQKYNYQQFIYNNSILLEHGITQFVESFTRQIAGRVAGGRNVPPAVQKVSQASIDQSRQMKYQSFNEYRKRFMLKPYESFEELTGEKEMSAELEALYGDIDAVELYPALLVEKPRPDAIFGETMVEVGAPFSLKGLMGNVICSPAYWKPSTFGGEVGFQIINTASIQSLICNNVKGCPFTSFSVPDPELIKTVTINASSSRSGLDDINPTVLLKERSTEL
The experiment can be described thus: Inhibition of human recombinant COX2 by measuring PGE2.

Experiment [6] can be described thus: Selectivity for ovine COX1 over human recombinant COX2.

Broadly, the IC50 is the point on the concentration scale where inhibition reaches its midpoint. For the compound `Oc1ccc(/C=C/c2cc(O)cc(O)c2)cc1` [RESVERATROL], the Activity in experiment [1] is given as -53.56%; in experiment [2], -55.15%; in experiment [3] it was -64.77%. It took 535 nM to reach half-maximal inhibition in experiment [4] (IC50).
`COc1ccc2c(c1)CCC(c1ccc(OC)c(OC)c1)=C2`: the IC50 in experiment [5] is 30 nM; in experiment [4], 380 nM. In addition, the Ratio IC50 in experiment [6] came out at 0.079.
The matching figures for `COc1ccc(C2=Cc3ccccc3CC2)c(OC)c1OC`: 660 nM, 480 nM and 1.38.
In the case of `COc1ccccc1C1=Cc2ccccc2C1`, the Activity is listed as -26.08% in experiment [1], -35.72% in experiment [2] and -40.89% in experiment [3]. The IC50 in experiment [5] came out at 62300 nM; in experiment [4] it was 460 nM. Further, in experiment [6], the Ratio IC50 amounted to 135.
For `C1=C(c2ccc3c(c2)OCO3)Cc2ccccc21`, the Activity is recorded as -19.82% in experiment [1], -28.08% in experiment [2] and -51.74% in experiment [3]. In addition, the values for the IC50 in experiment [5] and in experiment [4] were > 100000 nM and 12800 nM, respectively. Also, the Ratio IC50 in experiment [6] was > 7.8.
On to `COc1ccc(C2=Cc3ccccc3C2)c(OC)c1OC`, for which the Activity is -11.92% in experiment [1], -3.45% in experiment [2] and -35.94% in experiment [3]. The IC50 in experiment [5] worked out at 1330 nM; in experiment [4], 30 nM. For the same compound, in experiment [6], the Ratio IC50 worked out at 44.3.
For `C1=C(c2ccc3c(c2)OCO3)CCc2ccccc21`, the half-inhibitory concentration (IC50) in experiment [5] and in experiment [4] was > 100000 nM in each case.
On to `COc1ccc(C2=Cc3ccccc3CC2)cc1OC`, for which the Activity in experiment [1] is -41.45%; in experiment [2], -15.97%; in experiment [3] it was -45.34%. In addition, the values for the IC50 in experiment [5] and in experiment [4] were > 100000 nM and 61100 nM, respectively. The Ratio IC50 in experiment [6] is > 1.63.
For the compound `COc1ccc2c(c1)CCC(c1ccc(OC)c(OC)c1OC)=C2`, the half-inhibitory concentration (IC50) in experiment [5] was > 100000 nM; in experiment [4], 15 nM. The Ratio IC50 in experiment [6] is > 6670.
